ChEMBL document CHEMBL4616634, “4β-Hydroxywithanolide E from Goldenberry (Whole Fruits of Physalis peruviana L.) as a Promising Agent against Chronic Obstructive Pulmonary Disease” (J Nat Prod, 2020)
Calls of active or inactive are those of the source. The rule behind the calls is not given here.

Experiments:
MDA-MB-231 = assay: Cytotoxicity against human MDA-MB-231 cells assessed as decrease in cell viability at 0.13 to 10 uM after 24 to 48 hrs by MTT assay; type: cell-based; conditions: mda-mb-231, 10 µM
[1] = target: T1, Nuclear factor erythroid 2-related factor 2 (Homo sapiens) (UniProt Q16236); assay: Activation of Nrf2 in human MDA-MB-231 cells assessed as increase in NQO1 protein level at 0.5 uM incubated for 16 hrs by immunoblot analysis; type: cell-based
T1 sequence (whole entry): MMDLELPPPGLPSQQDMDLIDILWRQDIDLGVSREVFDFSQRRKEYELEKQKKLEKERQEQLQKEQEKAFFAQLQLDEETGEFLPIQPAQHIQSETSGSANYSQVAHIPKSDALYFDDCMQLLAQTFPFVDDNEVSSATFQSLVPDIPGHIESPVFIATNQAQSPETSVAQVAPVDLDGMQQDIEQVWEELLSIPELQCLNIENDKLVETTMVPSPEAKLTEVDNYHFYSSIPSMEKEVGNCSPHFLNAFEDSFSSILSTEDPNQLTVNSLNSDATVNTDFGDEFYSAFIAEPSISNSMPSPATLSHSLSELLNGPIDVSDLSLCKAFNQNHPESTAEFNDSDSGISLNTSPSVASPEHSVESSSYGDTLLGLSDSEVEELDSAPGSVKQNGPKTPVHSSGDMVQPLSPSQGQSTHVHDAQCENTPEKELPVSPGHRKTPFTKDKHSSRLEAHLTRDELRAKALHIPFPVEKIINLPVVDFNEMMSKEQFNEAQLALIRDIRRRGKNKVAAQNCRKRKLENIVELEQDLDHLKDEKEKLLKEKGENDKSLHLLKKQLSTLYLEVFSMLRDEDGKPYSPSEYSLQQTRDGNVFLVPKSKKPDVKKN

[2] = target: T1, Nuclear factor erythroid 2-related factor 2 (Homo sapiens); assay: Activation of Nrf2 in human MDA-MB-231 cells assessed as increase in GCLM protein level at 0.5 uM incubated for 16 hrs by immunoblot analysis; type: cell-based
BEAS-2B = assay: Cytotoxicity against human BEAS2B cells assessed as decrease in cell viability at < 12.5 uM after 24 hrs by MTT assay; type: cell-based
[3] = target: T1, Nuclear factor erythroid 2-related factor 2 (Homo sapiens); assay: Activation of Nrf2 in human BEAS2B cells assessed as increase in NQO1 protein expression incubated for 12 hrs by immunoblot analysis; type: cell-based
[4] = target: T1, Nuclear factor erythroid 2-related factor 2 (Homo sapiens); assay: Activation of Nrf2 in human BEAS2B cells assessed as increase in KEAP1 protein expression at 0.25 to 2 uM incubated for 12 hrs by immunoblot analysis; type: cell-based
[5] = target: T1, Nuclear factor erythroid 2-related factor 2 (Homo sapiens); assay: Activation of Nrf2 in human BEAS2B cells assessed as increase in GCLM mRNA expression at 0.5 to 2 uM incubated for 24 hrs by qRT-PCR analysis; type: cell-based
[6] = target: T1, Nuclear factor erythroid 2-related factor 2 (Homo sapiens); assay: Activation of Nrf2 in human BEAS2B cells assessed as increase in Keap1 mRNA expression at 0.5 to 2 uM incubated for 24 hrs by qRT-PCR analysis; type: cell-based
[7] = target: T1, Nuclear factor erythroid 2-related factor 2 (Homo sapiens); assay: Activation of Nrf2 in human BEAS2B cells assessed as increase in Nrf2 translocation in nucleus at 1 uM incubated for 6 hrs by DAPI staining based fluorescence microscopic analysis; type: cell-based
[8] = target: T1, Nuclear factor erythroid 2-related factor 2 (Homo sapiens); assay: Stabilization of Nrf2 in human BEAS2B cells assessed as protein half life at 1 uM after 8 hrs in presence of CHX by immunoblot analysis (reference value: 12.9 min); type: cell-based
[9] = target: T1, Nuclear factor erythroid 2-related factor 2 (Homo sapiens); assay: Activation of Nrf2 in human BEAS2B cells assessed as increase in Nrf2 protein expression at 5 uM incubated for 24 hrs by immunoblot analysis; type: cell-based
[10] = target: Keap1/Nrf2 (Homo sapiens) (UniProt Q16236+Q14145); assay: Inhibition of Nrf2-KEAP1 (unknown origin) transfected in BEAS2B cells assessed as decrease in ratio of Nrf2 to Keap1 at 5 uM incubated for 24 hrs by immunoblot analysis; type: cell-based
[11] = target: T1, Nuclear factor erythroid 2-related factor 2 (Homo sapiens); assay: Activation of Nrf2 in human BEAS2B cells harboring Keap1-C151S mutant assessed as increase in Nrf2 protein expression at 2.5 uM after12 hrs in presence of Keap1-siRNA by immunoblot analysis; type: cell-based
Danio rerio = organism: Danio rerio; assay: Inhibition of LPS-induced ROS generation in AB zebra fish oxidative damage model incubated for 24 hrs by DCFH-DA staining based fluorescence assay; type: functional, organism-based
RAW264.7 [12] = assay: Cytotoxicity against mouse RAW264.7 cells assessed as reduction in cell viability < 6.25 uM after 24 hrs by MTT assay; type: cell-based; conditions: raw264.7, 24 h
RAW264.7 [13] = assay: Inhibition of LPS-induced NFkappaB activation in mouse RAW264.7 cells pre-incubated for 1 hr followed by LPS-stimulation and measured after 16 hrs by dual luciferase reporter gene assay; type: cell-based
RAW264.7 [14] = assay: Inhibition of LPS-induced NFkappaB activation in mouse RAW264.7 cells assessed as decrease in phosphorylated NFkappaB p65 at 0.5 to 4 uM pre-incubated for 1 hr followed by LPS-stimulation and measured after 2 hrs by immunoblot analysis; type: cell-based
RAW264.7 [15] = assay: Inhibition of LPS-induced IL-6 protein expression in mouse RAW264.7 cells at 0.5 to 4 uM preincubated for 1 hr followed by LPS-stimulation and measured after 16 hrs by immunoblot analysis; type: functional, cell-based
RAW264.7 [16] = assay: Inhibition of LPS-induced TNFalpha protein expression in mouse RAW264.7 cells at 0.5 to 4 uM preincubated for 1 hr followed by LPS-stimulation and measured after 16 hrs by immunoblot analysis; type: functional, cell-based
RAW264.7 [17] = assay: Inhibition of LPS-induced IL-6 mRNA expression in mouse RAW264.7 cells at 0.5 to 4 uM preincubated for 1 hr followed by LPS-stimulation and measured after 6 hrs by qRT-PCR analysis; type: functional, cell-based
RAW264.7 [18] = assay: Inhibition of LPS-induced IL-1beta mRNA expression in mouse RAW264.7 cells at 0.5 to 4 uM preincubated for 1 hr followed by LPS-stimulation and measured after 6 hrs by qRT-PCR analysis; type: functional, cell-based
RAW264.7 [19] = assay: Inhibition of LPS-induced MMP-9 mRNA expression in mouse RAW264.7 cells at 0.5 to 4 uM preincubated for 1 hr followed by LPS-stimulation and measured after 6 hrs by qRT-PCR analysis; type: functional, cell-based
Mus musculus [20] = assay: Antiinflammatory activity in C57BL/6 mouse model of CS-induced pulmonary injury assessed as reduction in thickening of the alveolar septa in lungs at 2 to 4 mg/kg, ip for 5 days by hematoxylin and eosin staining based fluorescence microscopic analysis; type: functional, organism-based
Mus musculus [21] = assay: Antiinflammatory activity in C57BL/6 mouse model of CS-induced pulmonary injury assessed as reduction in distinct infiltration of leukocytes in lungs at 2 to 4 mg/kg, ip for 5 days by hematoxylin and eosin staining based fluorescence microscopic analysis; type: functional, organism-based
Mus musculus [22] = assay: Antioxidant Activity in C57BL/6 mouse model of CS-induced pulmonary injury assessed as decrease in MDA level in lungs at 2 to 4 mg/kg, ip for 5 days; type: functional, organism-based
Mus musculus [23] = assay: Antiinflammatory activity in C57BL/6 mouse model of CS-induced pulmonary injury assessed as reduction in TNFapha protein expression in lungs at 2 to 4 mg/kg, ip for 5 days by ELISA; type: functional, organism-based

Sequence of Keap1/Nrf2 (Homo sapiens) (Q14145 whole entry, looked up, one chain of several): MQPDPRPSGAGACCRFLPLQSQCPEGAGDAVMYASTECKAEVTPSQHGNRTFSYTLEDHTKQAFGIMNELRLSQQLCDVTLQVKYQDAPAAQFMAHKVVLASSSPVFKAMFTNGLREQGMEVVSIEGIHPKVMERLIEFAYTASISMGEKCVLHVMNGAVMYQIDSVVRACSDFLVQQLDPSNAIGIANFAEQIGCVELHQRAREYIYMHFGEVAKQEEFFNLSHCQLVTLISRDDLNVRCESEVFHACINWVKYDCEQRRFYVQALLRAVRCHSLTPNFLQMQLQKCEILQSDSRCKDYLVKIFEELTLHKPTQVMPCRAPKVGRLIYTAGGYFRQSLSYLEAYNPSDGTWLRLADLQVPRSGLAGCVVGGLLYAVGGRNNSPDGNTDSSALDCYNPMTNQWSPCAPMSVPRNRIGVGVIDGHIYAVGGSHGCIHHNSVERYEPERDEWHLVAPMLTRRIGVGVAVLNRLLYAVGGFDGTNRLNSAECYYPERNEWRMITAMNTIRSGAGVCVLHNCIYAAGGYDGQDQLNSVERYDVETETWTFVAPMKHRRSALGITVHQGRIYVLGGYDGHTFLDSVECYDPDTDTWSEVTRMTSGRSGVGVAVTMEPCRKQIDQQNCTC

CC1=C(C)C(=O)O[C@H]([C@](C)(O)[C@]2(O)CC[C@@]3(O)[C@@H]4C[C@H]5O[C@]56[C@@H](O)C=CC(=O)[C@]6(C)[C@H]4CC[C@]23C)C1
Activity (MDA-MB-231): Toxic | Activity [1]: Active | Activity [2]: Active | Activity (BEAS-2B): Non-Toxic | Activity [3]: Dose-dependent effect | Activity [4]: inactive | Activity [5]: Active | Activity [6]: inactive | Activity [7]: Active | T1/2 [8]: 34.3 min | Activity [9]: Active | inhibition [10]: Active | Activity [11]: inactive | inhibition (Danio rerio): Dose-dependent effect | Activity (RAW264.7 [12]): Non-Toxic | inhibition (RAW264.7 [13]): Dose-dependent effect | inhibition (RAW264.7 [14]): Active | inhibition (RAW264.7 [15]): Active | inhibition (RAW264.7 [16]): Active | inhibition (RAW264.7 [17]): Active | inhibition (RAW264.7 [18]): Active | inhibition (RAW264.7 [19]): Active | Activity (Mus musculus [20]): Active | Activity (Mus musculus [21]): Active | Activity (Mus musculus [22]): Active | Activity (Mus musculus [23]): Active
